Experiments:
HeLa cells = test: WST-1 cell viability assay, HeLa cells; format: cell-based; settings: HeLa human cervix carcinoma cells, 24 h treatment
Method: (§1) Murine embryonic fibroblast NIH3T3 cells were maintained in DMEM (Cat No. 043-30085, Wako Pure Chemical, Osaka, Japan) supplemented with 10% newborn calf serum (NBCS) at 37 °C and 5% CO2. Human cervix carcinoma HeLa cells were maintained in DMEM supplemented with 10% fetal bovine serum at 37 °C and 5% CO2. To determine the toxicity of BM and SL-BM, the WST-1 cell viability assay was employed as described previously. The cells (NIH3T3: 2000 per well; HeLa: 5000 per well) were seeded into all the wells of 96-well plates. After 24 h, the medium was replaced, and the cells were treated with the test compounds for 24 h. Then, the cells were incubated with a WST-1 solution (3.6 µg/µL WST-1, 70 ng/µL 1-methoxy phenazine methosulfate in 20 mM 4-(2-hydroxyethyl)-1-piperazineethanesufonic acid–KOH (pH 7.4); Dojindo, Kumamoto, Japan) for 1 h at 37 °C, and the absorbance of each well was recorded at 440 nm using a Multiskan FC microplate reader (Thermo Fisher Scientific).

NIH3T3 cells = test: WST-1 cell viability assay, NIH3T3 fibroblasts; format: cell-based; settings: Mus musculus, NIH3T3 murine embryonic fibroblasts, 24 h treatment
Method: as §1

CYP2C19 = CYP2C19 (Homo sapiens, UniProt P33261); test: CYP2C19 inhibition assay (CypExpress 2C19 kit, S-mephenytoin substrate, HPLC); settings: relative to BM
Chain of CYP2C19 (P33261 whole entry): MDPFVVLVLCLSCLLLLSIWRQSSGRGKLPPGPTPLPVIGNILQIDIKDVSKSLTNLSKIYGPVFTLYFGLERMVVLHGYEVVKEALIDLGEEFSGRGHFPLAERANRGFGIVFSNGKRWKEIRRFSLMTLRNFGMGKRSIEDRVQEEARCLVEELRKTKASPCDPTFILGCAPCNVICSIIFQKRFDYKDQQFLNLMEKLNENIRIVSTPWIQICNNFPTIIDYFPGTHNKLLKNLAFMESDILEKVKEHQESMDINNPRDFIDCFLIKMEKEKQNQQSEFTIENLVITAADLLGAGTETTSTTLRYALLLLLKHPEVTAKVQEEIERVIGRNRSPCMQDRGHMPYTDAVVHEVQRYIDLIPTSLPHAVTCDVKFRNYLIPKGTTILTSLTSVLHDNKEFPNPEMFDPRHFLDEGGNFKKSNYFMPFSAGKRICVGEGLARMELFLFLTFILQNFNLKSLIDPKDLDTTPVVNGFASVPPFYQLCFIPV
Method: (§2) Stock solutions of BM, SL-BM, and positive controls (each 5000 μM) were prepared in dimethyl sulfoxide (Fluka) and stored at –20 °C. The inhibitory effects of BM and SL-BM on the CYP2C9, 2C19, and 3A4 enzymes were examined using CypExpress^TM assay kits by employing diclofenac, S-mephenytoin, and testosterone substrates, respectively.
(§3) The substrates and products were analyzed using the HPLC system comprising a pump (Waters 510; Milford, MA, USA), an injector (Rheodyne 7125) with a 20 μL sample loop, and a UV detector (Waters 486). The data were evaluated by employing Millennium Chromatographic Manager software (Waters). HPLC analyses of diclofenac and 4′-hydroxydiclofenac (CYP2C9 assay) [39, 40], S-mephenytoin, and 4-hydroxymephenytoin [42] as well as testosterone and 6β-hydroxytestosterone (CYP3A4 assay) [41] were performed as described previously.
(§4) Data were derived from at least three independent experiments and represented as the mean ± the standard error of the mean (SEM) values. The statistical significance (p < 0.05 and p < 0.01) was established by employing a one-way ANOVA test (IBS SPSS Statistics, v. 21; Armonk, NY, USA). The metabolite formation (% of control) was plotted as a function of the logarithmic concentrations, and then the IC50 values were determined using GraphPad Prism 8 software (San Diego, CA, USA).

CYP2C9 = CYP2C9 (Homo sapiens, UniProt P11712)
Chain of CYP2C9 (P11712 whole entry): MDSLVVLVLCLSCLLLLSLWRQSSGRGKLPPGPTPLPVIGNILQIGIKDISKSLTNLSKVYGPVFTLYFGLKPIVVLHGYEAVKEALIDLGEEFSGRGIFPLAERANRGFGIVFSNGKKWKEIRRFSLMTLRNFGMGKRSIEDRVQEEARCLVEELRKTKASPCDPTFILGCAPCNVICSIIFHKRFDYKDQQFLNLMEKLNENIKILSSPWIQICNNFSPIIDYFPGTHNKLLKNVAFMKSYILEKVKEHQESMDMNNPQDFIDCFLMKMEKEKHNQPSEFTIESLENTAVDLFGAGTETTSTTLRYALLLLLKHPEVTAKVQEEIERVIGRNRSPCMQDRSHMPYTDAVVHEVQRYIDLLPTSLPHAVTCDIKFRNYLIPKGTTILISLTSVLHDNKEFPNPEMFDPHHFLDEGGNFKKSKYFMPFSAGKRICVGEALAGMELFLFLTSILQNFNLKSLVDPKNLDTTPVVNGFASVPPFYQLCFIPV
Method: as §2, §3, §4

Row | IC50(rel): IC50 of the inhibitor divided by the substrate concentration (CYP2C9) | α: IC50 of the inhibitor divided by the IC50 value of the positive control (CYP2C9) | SMILES | IC50 (HeLa cells) | IC50 (NIH3T3 cells) | melting point | fold weaker inhibitor of CYP2C19 than BM (CYP2C19)
1 |  |  | CC(C)=CCC/C(C)=C/COc1c2ccoc2cc2oc(=O)ccc12 [Bergamottin, 5-geranoxypsoralen] | > 50 µM | > 50 µM |  | 
2 |  |  | C/C(=C\COc1c2ccoc2cc2oc(=O)ccc12)CCC=C1CC(C)(C)N([O])C(C)(C)C1 [SL-Bergamottin] | 17.3 µM | > 50 µM | 51 to 53 °C | ~15 fold
3 | 1.96 | 1.00 | CC(=O)CC(c1ccccc1)c1c(O)c2ccccc2oc1=O (centres unmarked) [Warfarin, warfarin] |  |  |  | 
